ChEMBL document CHEMBL4602601, “Pharmaceutical and medicinal significance of sulfur (SVI)-Containing motifs for drug discovery: A critical review” (Eur J Med Chem, 2019)

Columns and labels:
[1] = test system: Chikungunya virus; assay: Antiviral activity against CHIKV; format: functional, organism-based
[2] = Inhibition of HIV protease; set-up: species or system Human immunodeficiency virus
[3] = Half life in rat; format: ADME; details: in vivo
[4] = test system: THP-1; assay: Cytotoxicity against human THP1 cells assessed as reduction in cell viability; format: functional, cell-based
[5] = Antagonist activity at cannabinoid receptor (unknown origin); set-up: species or system Homo sapiens
[6] = target: Carbonic anhydrase 2 (Homo sapiens, UniProt P00918); assay: Inhibition of human carbonic anhydrase 2
[7] = target: Carbonic anhydrase 4 (Homo sapiens, UniProt P22748); assay: Inhibition of human carbonic anhydrase 4
[8] = target: 5-hydroxytryptamine receptor 6 (Homo sapiens, UniProt P50406); assay: Antagonist activity at 5-HT6 receptor (unknown origin)
[9] = target: Carbonic anhydrase 1 (Homo sapiens, UniProt P00915); assay: Inhibition of human carbonic anhydrase 1
[10] = target: T1, Prostaglandin G/H synthase 2 (Rattus norvegicus, UniProt P35355); assay: Inhibition of COX2 isolated from rat seminal vesicles assessed as reduction of PGG2 to PGH2 using arachidonic acid substrate preincubated for 15 mins followed by substrate addition
T1 sequence (P35355 whole entry): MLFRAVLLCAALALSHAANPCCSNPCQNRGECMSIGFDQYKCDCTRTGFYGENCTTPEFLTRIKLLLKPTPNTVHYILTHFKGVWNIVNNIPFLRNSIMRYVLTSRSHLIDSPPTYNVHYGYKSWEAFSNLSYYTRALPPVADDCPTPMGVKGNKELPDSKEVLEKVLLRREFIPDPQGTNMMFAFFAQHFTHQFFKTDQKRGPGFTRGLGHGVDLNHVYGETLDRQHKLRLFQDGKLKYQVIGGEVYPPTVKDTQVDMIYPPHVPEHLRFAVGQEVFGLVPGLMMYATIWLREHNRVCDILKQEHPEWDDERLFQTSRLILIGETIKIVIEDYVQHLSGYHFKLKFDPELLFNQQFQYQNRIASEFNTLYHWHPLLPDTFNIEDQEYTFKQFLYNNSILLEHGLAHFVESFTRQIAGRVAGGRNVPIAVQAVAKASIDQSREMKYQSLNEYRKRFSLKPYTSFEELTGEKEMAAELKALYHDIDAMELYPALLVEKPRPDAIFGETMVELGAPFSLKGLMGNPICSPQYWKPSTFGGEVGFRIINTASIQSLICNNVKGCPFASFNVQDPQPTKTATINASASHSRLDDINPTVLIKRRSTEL

[11] = Inhibition of rat 5'-nucleotidase
[12] = target: T2, Cannabinoid receptor 1 (Homo sapiens, UniProt P21554); assay: Antagonist activity at human cannabinoid CB1 receptor
[13] = test system: Human immunodeficiency virus 1; assay: Antiviral activity against HIV1; format: functional, organism-based
[14] = Inhibition of HIV RT; set-up: species or system Human immunodeficiency virus
[15] = Inhibition of HIV integrase; set-up: species or system Human immunodeficiency virus
[16] = target: Cannabinoid receptor 2 (Homo sapiens, UniProt P34972); assay: Antagonist activity at human cannabinoid CB2 receptor
[17] = target: T2, Cannabinoid receptor 1; assay: Antagonist activity at cannabinoid CB1 receptor (unknown origin)
[18] = test system: Leishmania infantum; assay: Antileishmanial activity against Leishmania infantum; format: functional, organism-based
[19] = test system: Trypanosoma cruzi; assay: Antitrypanosomal activity against Trypanosoma cruzi; format: functional, organism-based
[20] = test system: Leishmania amazonensis; assay: Antileishmanial activity against Leishmania amazonensis; format: functional, organism-based

T2 sequence (P21554 whole entry): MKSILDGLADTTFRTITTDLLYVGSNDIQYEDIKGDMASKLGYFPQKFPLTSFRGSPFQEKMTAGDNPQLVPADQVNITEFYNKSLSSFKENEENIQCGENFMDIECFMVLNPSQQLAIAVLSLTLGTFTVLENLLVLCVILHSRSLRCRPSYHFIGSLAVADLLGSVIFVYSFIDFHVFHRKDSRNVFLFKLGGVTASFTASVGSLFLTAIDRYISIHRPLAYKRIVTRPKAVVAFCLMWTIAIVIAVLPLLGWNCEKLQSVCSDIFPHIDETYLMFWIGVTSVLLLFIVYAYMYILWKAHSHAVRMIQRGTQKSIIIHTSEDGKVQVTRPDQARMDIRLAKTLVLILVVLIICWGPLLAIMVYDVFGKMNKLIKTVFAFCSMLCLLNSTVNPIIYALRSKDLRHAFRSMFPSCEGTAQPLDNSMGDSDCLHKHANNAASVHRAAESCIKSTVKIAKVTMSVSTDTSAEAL
Sequence of 5-hydroxytryptamine receptor 6 (P50406 whole entry): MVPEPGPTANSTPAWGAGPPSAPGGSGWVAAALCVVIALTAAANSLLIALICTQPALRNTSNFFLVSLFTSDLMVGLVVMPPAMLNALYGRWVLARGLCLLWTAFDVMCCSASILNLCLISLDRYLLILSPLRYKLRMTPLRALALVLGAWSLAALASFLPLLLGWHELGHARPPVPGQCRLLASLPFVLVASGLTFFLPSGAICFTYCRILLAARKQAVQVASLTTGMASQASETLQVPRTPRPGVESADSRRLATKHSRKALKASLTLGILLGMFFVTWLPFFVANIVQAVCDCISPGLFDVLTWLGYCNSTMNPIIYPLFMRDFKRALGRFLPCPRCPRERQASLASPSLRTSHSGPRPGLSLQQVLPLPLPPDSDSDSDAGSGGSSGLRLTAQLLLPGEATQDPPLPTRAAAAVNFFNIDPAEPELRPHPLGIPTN
Sequence of Carbonic anhydrase 1 (P00915 whole entry): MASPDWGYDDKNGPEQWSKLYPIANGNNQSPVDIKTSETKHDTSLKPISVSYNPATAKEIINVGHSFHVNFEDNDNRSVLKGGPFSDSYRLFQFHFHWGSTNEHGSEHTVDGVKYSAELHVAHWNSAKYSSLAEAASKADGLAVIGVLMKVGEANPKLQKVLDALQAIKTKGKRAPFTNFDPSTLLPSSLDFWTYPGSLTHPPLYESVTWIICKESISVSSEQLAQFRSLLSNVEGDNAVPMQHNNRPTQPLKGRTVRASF
Sequence of Carbonic anhydrase 4 (P22748 whole entry): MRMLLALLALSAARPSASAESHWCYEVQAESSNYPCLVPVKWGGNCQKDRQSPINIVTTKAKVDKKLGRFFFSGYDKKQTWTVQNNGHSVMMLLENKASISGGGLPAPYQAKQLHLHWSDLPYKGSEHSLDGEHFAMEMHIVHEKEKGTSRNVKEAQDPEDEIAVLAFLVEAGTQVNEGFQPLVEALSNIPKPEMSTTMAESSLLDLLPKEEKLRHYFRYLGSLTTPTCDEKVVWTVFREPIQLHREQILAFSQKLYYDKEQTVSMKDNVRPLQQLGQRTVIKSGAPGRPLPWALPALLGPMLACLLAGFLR
Sequence of Cannabinoid receptor 2 (P34972 whole entry): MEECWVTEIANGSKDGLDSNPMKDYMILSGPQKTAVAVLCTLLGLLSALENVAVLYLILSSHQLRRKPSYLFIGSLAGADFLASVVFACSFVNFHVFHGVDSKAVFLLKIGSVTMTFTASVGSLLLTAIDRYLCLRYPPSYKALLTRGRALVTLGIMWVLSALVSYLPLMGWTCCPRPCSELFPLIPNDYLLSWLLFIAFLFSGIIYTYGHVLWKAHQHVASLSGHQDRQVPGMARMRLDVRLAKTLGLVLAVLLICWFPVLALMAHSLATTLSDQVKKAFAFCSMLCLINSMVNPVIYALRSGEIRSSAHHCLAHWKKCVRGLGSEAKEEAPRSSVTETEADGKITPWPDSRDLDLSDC

## N#Cc1ccc(S(=O)(=O)Nc2cccc(C(c3c(O)c4c(oc3=O)CCCCCC4)C3CC3)c2)cc1 (configuration not stated)
[1]
  IC50: 1.5 nM
[2]
  Ki: 0.8 nM
[3]
  half-life: 6 h

## O=S(=O)(Nc1ccc([Se][Se]c2ccc(NS(=O)(=O)c3ccc(F)cc3)cc2)cc1)c1ccc(F)cc1
[4]
  IC50: 2800 nM

## Cc1ccc(S(=O)(=O)Oc2ccc3c(CSc4nc5ccccc5c(=O)[nH]4)cc(=O)oc3c2)cc1
[1]
  EC50: 10200 nM

## O=S(=O)(NCc1ccc(-c2ccc(F)cc2F)cn1)c1cc2cc(Cl)ccc2[nH]1
[5]
  IC50: 3 nM

## COc1ccc(C2=NN(C(C)=O)C(c3ccc(OS(N)(=O)=O)cc3)C2)cc1 (configuration not stated)
[6]
  IC50: 0.4 nM
[7]
  IC50: 20.5 nM

## O=S(=O)(Nc1ccc2sc(N3CCNCC3)nc2c1)c1cccc2ccccc12
[8]
  Ki: 500 nM

## NS(=O)(=O)c1ccc(N2C(=O)CC/C2=C\C(=O)c2cccc(F)c2)cc1
[6]
  IC50: 0.46 nM

## O=S(=O)(Cl)c1c(Cl)nc2n1CCS2
[8]
  Ki: 8.4 nM

## CC(=O)/C(=N\Nc1cccc(-n2nc(C(=O)Nc3nnc(S(N)(=O)=O)s3)c(C(=O)Nc3nnc(S(N)(=O)=O)s3)c2-c2ccccc2)c1)C(=O)c1ccccc1
[9]
  Ki: 119 nM

## C/C(=N\NC(=O)CNC(=O)c1cccc(S(=O)(=O)Nc2ccccc2Cl)c1)c1ccc(F)cc1
[10]
  IC50: 8400 nM

## COc1cc(/C=C2\C=C(c3ccc(Cl)cc3)N(c3ccc(S(N)(=O)=O)cc3)C2=O)cc(OC)c1OC
[10]
  IC50: 420 nM

## O=S(=O)(Nc1ccc2[nH]ccc2c1)c1c(Cl)nc2n1CCS2
[8]
  Ki: 16.9 nM

## NS(=O)(=O)c1ccc(N2C(=O)/C(=C/c3ccc(C(F)(F)F)cc3)C=C2c2ccc(Cl)cc2)cc1
[10]
  IC50: 620 nM

## CCCC(=O)/C(=N/Nc1cccc(-n2nc(C(=O)Nc3nnc(S(N)(=O)=O)s3)c(C(=O)Nc3nnc(S(N)(=O)=O)s3)c2-c2ccccc2)c1)C(=O)OCC
[6]
  Ki: 884 nM

## COc1ccc(/C=C/C(=O)/C(=N/Nc2ccc(S(N)(=O)=O)cc2)N2CCOCC2)cc1
[11]
  IC50: 330 nM

## Cc1cc(S(=O)(=O)N2CCc3c(nc(C(C)(C)C)n3CC3CC3)C2)no1
[12]
  EC50: 5.1 nM

## CN(C)c1cccnc1N1CCN(C(=O)c2cc3cc(NS(C)(=O)=O)ccc3[nH]2)CC1
[13]
  IC50: 21 nM
[14]
  IC50: > 100000 nM
[15]
  IC50: 36 nM

## O=C(CNC(=O)c1cccc(S(=O)(=O)Nc2ccccc2Cl)c1)N/N=C/c1ccc(C(F)(F)F)cc1
[10]
  IC50: 8900 nM

## CCn1cnc2c(Oc3ccc(/C=C/C(=O)c4ccc(NS(=O)(=O)c5ccccc5C)cc4)cc3)ncnc21
[1]
  EC50: 51.6 µg/mL

## CC(C)c1ccc(S(=O)(=O)Nc2ccc3nc(N4CCN(C)CC4)sc3c2)cc1
[8]
  IC50: 14000 nM

## O=C(NN1CCCCC1)c1cn(-c2ccc(Cl)cc2Cl)c(-c2ccc(C#Cc3ccc(C(F)(F)F)cc3)s2)c1CNS(=O)(=O)N1CCCC1
[16]
  Ki: 21 nM
[12]
  Ki: 0.3 nM
[17]
  EC50: 3 nM

## CN1CCN(c2nc3cc(NS(=O)(=O)c4cccc5ccccc45)ccc3s2)CC1
[8]
  IC50: 3900 nM

## NS(=O)(=O)c1ccc(N2C(=O)CC/C2=C\C(=O)c2ccc([N+](=O)[O-])cc2Cl)cc1
[6]
  IC50: 0.46 nM

## O=c1ccnc(SCc2cc(=O)oc3cc(OS(=O)(=O)c4ccccc4[N+](=O)[O-])ccc23)[nH]1
[1]
  EC50: 13000 nM

## CCOc1ccc(-c2ccc(CNS(=O)(=O)c3cc4cc(Cl)ccc4[nH]3)cc2)cn1
[5]
  IC50: 4 nM

## Cc1cc(S(=O)(=O)N2CCc3c(nc(CC(C)(C)C)n3CC3CC3)C2)no1
[12]
  EC50: 7 nM

## O=S(=O)(Nc1cccc2cnccc12)c1ccc2ccccc2c1
[18]
  IC50: 23000 nM
[19]
  IC50: 224000 nM
[20]
  IC50: 42900 nM

## CC(=O)N1CCc2ccc(NS(=O)(=O)c3c(Cl)nc4n3CCS4)cc21
[8]
  Ki: 5.4 nM
